Laboratory results reported in patent publication EP1170365A1, “Member of the ion channel family of polypeptides; vanilrep4” (SMITHKLINE BEECHAM PLC, priority 2000, dated 2002).

Experiments:
Assay type in all cases: cell-based
[1] = test system: wild type HEK293 cells; assay: FLIPR intracellular calcium assay (Fluo-3) in wild type HEK293 cells; settings: result in words
[2] = test system: cells transfected with empty vector; assay: FLIPR intracellular calcium assay (Fluo-3) in HEK293 cells transfected with empty vector; settings: result in words
[3] = target: T1, hVR1 (Homo sapiens, UniProt Q8NER1); assay: cell-based; settings: for activity at VR1: result in words
T1 construct: expressed in transfected cells; host or cells: HEK293 (transient)

[4] = target: T2, hVR4 (Homo sapiens, UniProt Q9HBA0); assay: FLIPR intracellular calcium assay (Fluo-3) in HEK293 cells transiently expressing hVR4; settings: for effect on intracellular calcium: HEK293-hVR4 cells, result in words
T2 construct: expressed in transfected cells; host or cells: HEK293 (transient)
Method: HEK293 cells transiently expressing hVR1 or hVR4 were seeded into FLIPR96 plates at 25,000cells/well and cultured overnight. The cells were then loaded in medium containing 4microM Fluo-3 for 2hrs, at room temperature, in the dark. The cell plates were then washed 4x with Tyrode containing 1.5mM calcium and 0.2% BSA. Agonist and antagonist plates were prepared in the same buffer. Cells were preincubated with either antagonist or buffer at room temperature for 30 mins. Agonists additions and calcium measurements were made in the FLIPR (Smart et al., (2000) Br J. Pharmacol. 129, 227-230).

T2 sequence (Q9HBA0 whole entry): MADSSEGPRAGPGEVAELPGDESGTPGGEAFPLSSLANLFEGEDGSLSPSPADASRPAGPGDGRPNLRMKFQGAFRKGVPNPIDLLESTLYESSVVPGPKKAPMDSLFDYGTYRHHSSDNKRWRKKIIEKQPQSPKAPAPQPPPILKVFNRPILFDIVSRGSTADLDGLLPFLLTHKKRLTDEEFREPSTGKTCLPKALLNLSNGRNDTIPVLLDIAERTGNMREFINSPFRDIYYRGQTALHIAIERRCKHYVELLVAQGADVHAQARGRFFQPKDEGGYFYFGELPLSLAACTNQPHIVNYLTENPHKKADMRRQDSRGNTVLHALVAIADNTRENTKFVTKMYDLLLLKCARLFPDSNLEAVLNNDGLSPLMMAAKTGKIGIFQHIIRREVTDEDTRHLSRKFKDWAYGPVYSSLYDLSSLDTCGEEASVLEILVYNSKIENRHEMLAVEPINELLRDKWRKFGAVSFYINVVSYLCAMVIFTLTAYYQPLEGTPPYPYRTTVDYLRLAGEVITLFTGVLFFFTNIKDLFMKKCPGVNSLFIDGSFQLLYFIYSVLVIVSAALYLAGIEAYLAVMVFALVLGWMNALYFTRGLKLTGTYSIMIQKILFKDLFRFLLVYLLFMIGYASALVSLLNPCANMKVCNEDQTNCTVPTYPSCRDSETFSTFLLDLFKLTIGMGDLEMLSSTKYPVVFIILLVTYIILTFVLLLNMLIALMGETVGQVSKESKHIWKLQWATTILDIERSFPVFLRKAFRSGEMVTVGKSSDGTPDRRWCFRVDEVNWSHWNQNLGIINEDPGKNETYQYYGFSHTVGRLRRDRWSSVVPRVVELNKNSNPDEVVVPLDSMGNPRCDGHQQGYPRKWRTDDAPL
T1 sequence (Q8NER1 whole entry): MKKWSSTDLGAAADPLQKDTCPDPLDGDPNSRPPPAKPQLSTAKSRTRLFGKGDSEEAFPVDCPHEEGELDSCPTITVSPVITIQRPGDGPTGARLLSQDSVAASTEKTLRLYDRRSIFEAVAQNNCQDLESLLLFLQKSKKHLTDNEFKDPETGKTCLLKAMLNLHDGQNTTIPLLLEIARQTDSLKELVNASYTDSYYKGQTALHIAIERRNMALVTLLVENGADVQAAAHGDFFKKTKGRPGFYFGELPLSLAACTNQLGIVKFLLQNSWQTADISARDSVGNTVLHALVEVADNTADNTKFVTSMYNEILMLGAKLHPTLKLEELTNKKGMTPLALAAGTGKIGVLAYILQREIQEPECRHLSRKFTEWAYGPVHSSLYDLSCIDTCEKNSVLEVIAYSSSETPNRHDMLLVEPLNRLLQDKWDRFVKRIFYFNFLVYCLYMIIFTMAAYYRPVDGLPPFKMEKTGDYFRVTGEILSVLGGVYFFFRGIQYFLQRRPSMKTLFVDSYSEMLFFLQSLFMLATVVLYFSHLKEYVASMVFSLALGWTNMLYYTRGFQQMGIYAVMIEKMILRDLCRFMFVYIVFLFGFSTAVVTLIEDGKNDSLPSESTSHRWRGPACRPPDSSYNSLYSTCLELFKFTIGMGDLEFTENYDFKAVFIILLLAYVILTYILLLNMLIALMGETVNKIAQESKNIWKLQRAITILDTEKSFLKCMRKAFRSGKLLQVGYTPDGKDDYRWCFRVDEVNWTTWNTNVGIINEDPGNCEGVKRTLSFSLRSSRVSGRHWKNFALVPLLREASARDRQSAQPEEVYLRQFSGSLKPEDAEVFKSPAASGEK

Structure (SMILES): CCCCCCCCCC(=O)O[C@@H]1[C@@H](C)[C@@]2(O)[C@@H](C=C(CO)C[C@@]3(O)C(=O)C(C)=C[C@@H]23)[C@@H]2C(C)(C)[C@]12OC(=O)CCCCCCCCC [4αPDD, 4α-phorbol-12,13-didecanoate]
- effect on intracellular calcium [1]: without effect
- effect on intracellular calcium [2]: without effect
- activity at VR1 ([3]; VR1): inactive
- effect on intracellular calcium [4]: increased intracellular calcium
- pEC50 ([4]; HEK293 cells expressing hVR4, mean±s.e.mean, n=3-5, IA= inactive): 5.73±0.06
- selectivity ([4]; VR4 versus VR1, conclusion in words): VR4 selective agonist

Structure (SMILES): CCCCCCCCCCCCCC(=O)O[C@@H]1[C@@H](C)[C@@]2(O)[C@@H](C=C(CO)C[C@]3(O)C(=O)C(C)=C[C@@H]23)[C@@H]2C(C)(C)[C@]12OC(C)=O [PMA, phorbol 12-myristate 13-acetate]
- effect on intracellular calcium [1]: without effect
- effect on intracellular calcium [2]: without effect
- EC50 [3]: 13.8 nM
- Emax ([3]; VR1, compared to capsaicin and RTX): 0.46
- activity at VR1 ([3]; VR1): partial agonist
- EC50 [4]: 229 nM
- effect on intracellular calcium [4]: increased intracellular calcium

Structure (SMILES): C=C(C)C12CC(C)C34OC(Cc5ccccc5)(OC1C3C=C(COC(=O)Cc1ccc(O)c(OC)c1)CC1(O)C(=O)C(C)=CC14)O2 (centres unmarked) [RTX]
- EC50 [3]: 1.17 nM
